In PubChem BioAssay AID2060905 (Molecular Pharmacology Branch, DTP, NCI, 2025):

Test system: 282377-053-R-J1-PDC complex spheroid viability
Experiment: Anticancer human tumor 282377-053-R-J1-PDC patient-derived colon adenocarcinoma cell line growth inhibition [RAS]
Settings: for IC50: curve of first compound; for viability, T/C: stronger effect = lower value; active means viability on the fitted dose curve at most 10% of control; inactive means the rest
Outline: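 Multi-cell-type spheroids: tumor cells plus HUVEC endothelial cells and mesenchymal stem cells. RAS-pathway inhibitors were combined with targeted agents, each dosed in half-log steps down from clinical Cmax, or from 10 microM when Cmax was unknown.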
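Further: spheroids exposed to agents for seven days before readout.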
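Wherever viability, T/C is given: luminescence viability as percent of DMSO vehicle control wells.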

CC1(C)CCC(Nc2ncc(C(F)(F)F)c(-c3c[nH]c4c(P(C)(C)=O)c(C#N)ccc34)n2)CN1 (configuration not stated) + CCn1c(-c2cc(N3CCN(C)CC3)cnc2C(C)OC)c2c3cc(ccc31)-c1csc(n1)CC(NC(=O)C1CC1C)C(=O)N1CCCC(N1)C(=O)OCC(C)(C)C2
> 300 nM: IC50 (second compound 0.000949 µM) | IC50 (second compound 0.003 µM) | IC50 (second compound 0.00949 µM) | IC50 (second compound 0.03 µM) | IC50 (second compound 0.0949 µM) | IC50 (second compound 0.3 µM)
inactive: viability, T/C (second compound 0.000949 µM, first compound 0.000949 µM) 104% | viability, T/C (second compound 0.000949 µM, first compound 0.003 µM) 123% | viability, T/C (second compound 0.000949 µM, first compound 0.00949 µM) 109% | viability, T/C (second compound 0.000949 µM, first compound 0.03 µM) 104% | viability, T/C (second compound 0.000949 µM, first compound 0.0949 µM) 97.8% | viability, T/C (second compound 0.000949 µM, first compound 0.3 µM) 94.8% | viability, T/C (second compound 0.003 µM, first compound 0.000949 µM) 98.2% | viability, T/C (second compound 0.003 µM, first compound 0.003 µM) 135% | viability, T/C (second compound 0.003 µM, first compound 0.00949 µM) 129% | viability, T/C (second compound 0.003 µM, first compound 0.03 µM) 99.6% | viability, T/C (second compound 0.003 µM, first compound 0.0949 µM) 90.2% | viability, T/C (second compound 0.003 µM, first compound 0.3 µM) 94.9% | viability, T/C (second compound 0.00949 µM, first compound 0.000949 µM) 116% | viability, T/C (second compound 0.00949 µM, first compound 0.003 µM) 96.5% | viability, T/C (second compound 0.00949 µM, first compound 0.00949 µM) 126% | viability, T/C (second compound 0.00949 µM, first compound 0.03 µM) 91.1% | viability, T/C (second compound 0.00949 µM, first compound 0.0949 µM) 92% | viability, T/C (second compound 0.00949 µM, first compound 0.3 µM) 96.3% | viability, T/C (second compound 0.03 µM, first compound 0.000949 µM) 109% | viability, T/C (second compound 0.03 µM, first compound 0.003 µM) 104% | viability, T/C (second compound 0.03 µM, first compound 0.00949 µM) 110% | viability, T/C (second compound 0.03 µM, first compound 0.03 µM) 101% | viability, T/C (second compound 0.03 µM, first compound 0.0949 µM) 96.9% | viability, T/C (second compound 0.03 µM, first compound 0.3 µM) 84.3% | viability, T/C (second compound 0.0949 µM, first compound 0.000949 µM) 107% | viability, T/C (second compound 0.0949 µM, first compound 0.003 µM) 118% | viability, T/C (second compound 0.0949 µM, first compound 0.00949 µM) 124% | viability, T/C (second compound 0.0949 µM, first compound 0.03 µM) 110% | viability, T/C (second compound 0.0949 µM, first compound 0.0949 µM) 119% | viability, T/C (second compound 0.0949 µM, first compound 0.3 µM) 76.7% | viability, T/C (second compound 0.3 µM, first compound 0.000949 µM) 136% | viability, T/C (second compound 0.3 µM, first compound 0.003 µM) 144% | viability, T/C (second compound 0.3 µM, first compound 0.00949 µM) 145% | viability, T/C (second compound 0.3 µM, first compound 0.03 µM) 113% | viability, T/C (second compound 0.3 µM, first compound 0.0949 µM) 108% | viability, T/C (second compound 0.3 µM, first compound 0.3 µM) 88.2%
